Results reported in patent EP4467141A1, “PYRAZOLO-QUINOLINES AS SELECTIVE INHIBITORS OF GENOTOXIC STRESS-INDUCED IKK/NF- KB PATHWAYS FOR CANCER THERAPY” (Max-Delbrück-Centrum für Molekulare Medizin in der …, priority 2023, dated 2024).

Assays:
Assay in all cases: Kinase panel study
Type in all cases: biochemical
Settings in all cases: read-out: Percentage of inhibition; for inhibition at 1 µM: 1000nM; for inhibition at 10 µM: 10000nM
[1] = target: T1, MARK2 (Homo sapiens, UniProt Q7KZI7)
T1 construct: purchased Thermo Fisher Scientific
T1 sequence (Q7KZI7 whole entry): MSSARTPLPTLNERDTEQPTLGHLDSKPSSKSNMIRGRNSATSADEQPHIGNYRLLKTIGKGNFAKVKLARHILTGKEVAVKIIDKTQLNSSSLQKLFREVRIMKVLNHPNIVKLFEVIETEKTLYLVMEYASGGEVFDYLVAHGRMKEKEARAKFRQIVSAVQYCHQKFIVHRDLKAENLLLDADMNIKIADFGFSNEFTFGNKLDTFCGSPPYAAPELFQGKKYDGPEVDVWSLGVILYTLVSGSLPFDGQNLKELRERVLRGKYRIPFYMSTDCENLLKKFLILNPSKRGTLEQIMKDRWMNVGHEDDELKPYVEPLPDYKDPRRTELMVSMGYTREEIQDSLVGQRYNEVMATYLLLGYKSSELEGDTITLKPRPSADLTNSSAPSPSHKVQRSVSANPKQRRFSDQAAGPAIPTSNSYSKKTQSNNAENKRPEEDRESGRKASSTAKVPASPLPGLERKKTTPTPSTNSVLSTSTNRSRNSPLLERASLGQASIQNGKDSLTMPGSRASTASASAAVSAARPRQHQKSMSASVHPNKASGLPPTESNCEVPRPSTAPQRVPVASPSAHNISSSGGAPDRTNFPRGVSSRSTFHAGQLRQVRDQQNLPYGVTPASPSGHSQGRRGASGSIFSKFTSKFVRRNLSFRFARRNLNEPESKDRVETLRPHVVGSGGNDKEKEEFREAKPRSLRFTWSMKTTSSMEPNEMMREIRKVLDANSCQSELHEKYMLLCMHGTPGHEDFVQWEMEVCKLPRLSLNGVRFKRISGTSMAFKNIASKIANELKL
Summary of the method: (§1)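 Readout is percentage kinase inhibition. Testing used 1 µM or 10 µM compound in externally run ZLyte/Adapta in vitro assays, and IC50 values were derived within the same panel.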

[2] = target: T2, NEK6 (Homo sapiens, UniProt Q9HC98)
T2 construct: purchased Thermo Fisher Scientific
T2 sequence (Q9HC98 whole entry): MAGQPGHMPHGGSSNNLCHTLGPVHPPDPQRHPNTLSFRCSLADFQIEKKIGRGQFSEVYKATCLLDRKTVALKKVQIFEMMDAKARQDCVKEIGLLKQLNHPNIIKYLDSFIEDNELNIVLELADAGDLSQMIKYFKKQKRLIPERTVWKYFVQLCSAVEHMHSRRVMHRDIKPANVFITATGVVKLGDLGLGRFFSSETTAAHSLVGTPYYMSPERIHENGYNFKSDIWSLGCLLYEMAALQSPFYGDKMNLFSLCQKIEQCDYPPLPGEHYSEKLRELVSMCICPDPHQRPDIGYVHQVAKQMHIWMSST
Summary of the method: as §1

[3] = target: T3, NEK1 (Homo sapiens, UniProt Q96PY6)
T3 construct: purchased Thermo Fisher Scientific
T3 sequence (Q96PY6 1-1258): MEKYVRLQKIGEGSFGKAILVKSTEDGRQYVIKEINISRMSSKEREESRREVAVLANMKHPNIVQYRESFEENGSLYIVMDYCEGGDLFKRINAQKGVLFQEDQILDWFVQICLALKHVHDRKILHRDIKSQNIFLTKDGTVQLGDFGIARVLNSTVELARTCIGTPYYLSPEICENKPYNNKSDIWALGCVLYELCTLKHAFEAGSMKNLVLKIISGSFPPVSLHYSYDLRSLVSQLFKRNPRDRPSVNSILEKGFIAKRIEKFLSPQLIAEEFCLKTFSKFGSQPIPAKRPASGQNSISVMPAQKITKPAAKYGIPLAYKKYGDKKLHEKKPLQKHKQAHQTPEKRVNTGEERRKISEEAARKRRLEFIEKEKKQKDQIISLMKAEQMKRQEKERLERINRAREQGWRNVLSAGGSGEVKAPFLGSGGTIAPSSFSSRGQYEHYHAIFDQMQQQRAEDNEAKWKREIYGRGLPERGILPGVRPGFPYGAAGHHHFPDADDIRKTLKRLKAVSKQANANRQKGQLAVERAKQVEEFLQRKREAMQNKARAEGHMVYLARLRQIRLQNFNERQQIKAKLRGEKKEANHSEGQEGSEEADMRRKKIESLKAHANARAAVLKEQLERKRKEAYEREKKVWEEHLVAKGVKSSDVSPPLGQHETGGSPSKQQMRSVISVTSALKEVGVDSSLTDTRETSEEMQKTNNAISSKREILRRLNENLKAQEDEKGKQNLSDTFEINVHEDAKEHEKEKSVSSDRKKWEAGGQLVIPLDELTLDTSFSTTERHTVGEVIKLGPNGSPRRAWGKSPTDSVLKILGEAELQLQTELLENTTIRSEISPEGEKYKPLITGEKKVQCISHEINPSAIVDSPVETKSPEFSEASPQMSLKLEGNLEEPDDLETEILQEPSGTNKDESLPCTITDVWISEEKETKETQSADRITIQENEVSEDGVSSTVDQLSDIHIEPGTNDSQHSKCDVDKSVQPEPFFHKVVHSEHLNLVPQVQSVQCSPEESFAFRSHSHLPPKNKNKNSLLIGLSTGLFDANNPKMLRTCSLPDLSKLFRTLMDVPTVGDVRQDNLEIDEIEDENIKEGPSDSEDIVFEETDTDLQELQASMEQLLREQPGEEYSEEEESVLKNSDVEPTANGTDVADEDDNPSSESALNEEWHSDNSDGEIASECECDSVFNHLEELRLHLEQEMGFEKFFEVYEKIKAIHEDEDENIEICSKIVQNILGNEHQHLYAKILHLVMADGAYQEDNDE
Summary of the method: as §1

## COc1ccc2c(c1OC)c(=O)n1c3ccc(O)cc3c3ccnc2c31 [MW01, 5-Hydroxy-10,11-dimethoxy-9H-benzo[c]indolo[3,2,1-ij][1,5]naphthyridin-9-one]
[1]
  inhibition at 1 µM: 10%
  inhibition at 10 µM: 5%
[2]
  inhibition at 1 µM: 4%
  inhibition at 10 µM: -4%
[3]
  inhibition at 1 µM: 23%
  inhibition at 10 µM: 58%

## COc1ccc2cc3c(N)nn(C(=O)c4cccc(N(C)C)c4)c3nc2c1 [MW05, (3-Amino-7-methoxypyrazolo[3,4-b]quinolin-1-yl)-[3-(dimethylamino)phenyl]methanone]
[1]
  inhibition at 1 µM: 3%
  inhibition at 10 µM: 5%
[2]
  inhibition at 1 µM: 1%
  inhibition at 10 µM: -4%
[3]
  inhibition at 1 µM: -1%
  inhibition at 10 µM: 6%
